Test results reported in ChEMBL document CHEMBL3988442, “University of Dundee, Small-Polar-MMV Screening Library” (2021).
Several values for one entry are separate records, joined by “and”; a condition that tells them apart may be missing. Identical values can stand only once.

What was measured:
[1] = tested on: Mycobacterium tuberculosis; experiment: Cornell M. t heat shock assay; assay type: functional, organism-based; settings: Mycobacterium tuberculosis
[2] = microbe, parasite or virus in culture; settings: Mycobacterium tuberculosis, 96 h, read-out: pIC50 (converted)
Wolbachia pipientis = experiment: Anti-Wolbachia Cell-Based Screen; assay type: functional; settings: for IC50: Wolbachia pipientis
[3] = microbe, parasite or virus in culture; settings: Mycobacterium tuberculosis, 72 h, read-out: pIC50 (converted)
Schistosoma mansoni = experiment: High throughput screening of compounds against Schistosoma mansoni motility; assay type: functional; parameters: dose or concentration left out as unconfirmed
[4] = target: Polyketide synthase Pks13 (Mycobacterium tuberculosis (strain ATCC 25618 / H37Rv), UniProt I6X8D2); experiment: Mycobacterium tuberculosis Polyketide synthase 13 Thioesterase (PKS13); assay type: functional
ClpP1P2 = ClpP1P2 (Mycobacterium tuberculosis (strain ATCC 25618 / H37Rv), UniProt P9WPC3+P9WPC5); experiment: in vitro assay to detect presence of AMC directly proportional to the activity of ClpP1P2. GHDDI collaboration.; assay type: functional
Histidine--tRNA ligase = target: T1, Histidine--tRNA ligase (Leishmania infantum, UniProt A4I591); experiment: Leishmania infantum Histidine tRNA synthetase (LdHisRS); assay type: functional
T1 sequence (A4I591 whole entry): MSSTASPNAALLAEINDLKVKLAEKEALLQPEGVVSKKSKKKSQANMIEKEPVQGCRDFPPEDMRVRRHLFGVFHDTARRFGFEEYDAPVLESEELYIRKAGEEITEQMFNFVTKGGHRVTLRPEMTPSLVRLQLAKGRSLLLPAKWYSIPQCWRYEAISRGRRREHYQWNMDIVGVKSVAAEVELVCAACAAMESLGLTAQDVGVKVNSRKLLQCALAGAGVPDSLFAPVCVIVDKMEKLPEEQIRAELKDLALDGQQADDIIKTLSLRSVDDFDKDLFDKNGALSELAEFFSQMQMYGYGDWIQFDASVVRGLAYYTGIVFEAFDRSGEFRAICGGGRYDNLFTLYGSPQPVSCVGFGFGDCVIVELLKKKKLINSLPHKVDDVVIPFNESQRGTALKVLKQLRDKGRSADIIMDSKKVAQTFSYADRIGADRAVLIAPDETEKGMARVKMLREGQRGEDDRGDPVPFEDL

Polyketide synthase Pks13, sequence (I6X8D2 whole entry): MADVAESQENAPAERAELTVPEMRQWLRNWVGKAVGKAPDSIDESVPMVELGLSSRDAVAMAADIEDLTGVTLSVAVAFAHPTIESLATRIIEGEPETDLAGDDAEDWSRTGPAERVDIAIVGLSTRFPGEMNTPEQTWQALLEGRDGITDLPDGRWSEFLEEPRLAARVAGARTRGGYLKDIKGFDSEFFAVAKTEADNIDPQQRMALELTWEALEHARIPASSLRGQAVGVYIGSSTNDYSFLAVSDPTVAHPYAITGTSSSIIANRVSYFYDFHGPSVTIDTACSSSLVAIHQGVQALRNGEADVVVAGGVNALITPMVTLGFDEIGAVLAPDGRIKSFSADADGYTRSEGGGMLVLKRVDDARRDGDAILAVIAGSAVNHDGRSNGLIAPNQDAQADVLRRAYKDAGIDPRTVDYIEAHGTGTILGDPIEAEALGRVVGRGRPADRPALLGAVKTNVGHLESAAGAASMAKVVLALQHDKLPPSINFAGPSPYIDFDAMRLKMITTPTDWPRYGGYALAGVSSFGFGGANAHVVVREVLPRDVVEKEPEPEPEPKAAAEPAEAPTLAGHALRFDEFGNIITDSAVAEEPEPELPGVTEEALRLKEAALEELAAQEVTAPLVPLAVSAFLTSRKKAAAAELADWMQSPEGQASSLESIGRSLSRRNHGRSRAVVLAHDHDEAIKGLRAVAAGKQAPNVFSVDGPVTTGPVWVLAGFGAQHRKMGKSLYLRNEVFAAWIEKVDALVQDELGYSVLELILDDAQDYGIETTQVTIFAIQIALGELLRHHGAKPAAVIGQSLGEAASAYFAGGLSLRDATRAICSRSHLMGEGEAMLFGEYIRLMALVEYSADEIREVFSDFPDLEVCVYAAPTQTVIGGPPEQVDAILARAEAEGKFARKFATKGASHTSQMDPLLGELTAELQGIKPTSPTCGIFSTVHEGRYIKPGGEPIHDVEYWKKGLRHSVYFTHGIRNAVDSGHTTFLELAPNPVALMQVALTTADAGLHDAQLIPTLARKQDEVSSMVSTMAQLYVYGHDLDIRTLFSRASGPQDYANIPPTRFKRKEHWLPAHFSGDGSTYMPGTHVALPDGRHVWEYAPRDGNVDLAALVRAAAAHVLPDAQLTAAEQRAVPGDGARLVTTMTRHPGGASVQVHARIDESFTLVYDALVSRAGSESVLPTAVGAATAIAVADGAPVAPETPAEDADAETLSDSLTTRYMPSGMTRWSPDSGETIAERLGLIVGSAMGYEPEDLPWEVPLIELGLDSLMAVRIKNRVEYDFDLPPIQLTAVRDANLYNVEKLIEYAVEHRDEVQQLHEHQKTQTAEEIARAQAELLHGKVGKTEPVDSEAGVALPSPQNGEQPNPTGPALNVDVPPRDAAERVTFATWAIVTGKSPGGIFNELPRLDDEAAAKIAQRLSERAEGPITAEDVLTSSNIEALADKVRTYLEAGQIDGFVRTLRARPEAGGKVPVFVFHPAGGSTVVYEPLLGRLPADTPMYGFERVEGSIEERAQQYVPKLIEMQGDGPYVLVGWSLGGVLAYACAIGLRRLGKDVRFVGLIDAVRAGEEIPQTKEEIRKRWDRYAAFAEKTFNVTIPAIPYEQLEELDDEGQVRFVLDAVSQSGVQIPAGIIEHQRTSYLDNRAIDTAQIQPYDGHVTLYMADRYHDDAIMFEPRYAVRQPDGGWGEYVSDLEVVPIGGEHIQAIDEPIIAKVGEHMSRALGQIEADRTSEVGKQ
ClpP1P2, sequence (P9WPC5 whole entry): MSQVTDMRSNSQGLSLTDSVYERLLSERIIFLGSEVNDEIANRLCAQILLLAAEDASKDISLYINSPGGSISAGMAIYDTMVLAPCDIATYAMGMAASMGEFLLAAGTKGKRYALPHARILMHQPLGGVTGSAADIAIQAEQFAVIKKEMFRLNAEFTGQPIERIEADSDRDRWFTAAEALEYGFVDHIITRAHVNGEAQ
ClpP1P2, sequence (P9WPC3 whole entry): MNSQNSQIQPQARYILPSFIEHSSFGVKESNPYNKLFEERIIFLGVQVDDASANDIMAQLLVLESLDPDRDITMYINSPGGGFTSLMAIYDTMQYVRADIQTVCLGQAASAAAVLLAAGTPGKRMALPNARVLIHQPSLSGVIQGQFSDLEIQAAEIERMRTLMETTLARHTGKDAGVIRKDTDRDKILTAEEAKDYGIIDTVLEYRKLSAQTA

Structure (SMILES): COCC(=O)N1CCCC1c1cccc(Nc2ncc(C)s2)n1 (stereo not given)
- IC50 [1]: > 100 µM

Structure (SMILES): Cc1ccccc1C1CCN(CCn2cc(-c3cccc(O)c3)nn2)C1 (stereo not given)
- IC50 [1]: 78.7 µM

Structure (SMILES): CC(C)Oc1ncccc1CNC(=O)c1ccccn1
- IC50 [1]: > 100 µM

Structure (SMILES): Cc1csc(CN(C)c2cc(C)nc3c(C)c(C)nn23)n1
- IC50 [2]: 25.5 µM
- pIC50 (Wolbachia pipientis): 5.234
- IC50 (Wolbachia pipientis): 6.27 µM
- IC50 [3]: 37.9 µM

Structure (SMILES): CN(Cc1ccc(F)cc1)CC1(O)CCCN(CC(C)(C)C)C1=O (stereo not given)
- IC50 (Wolbachia pipientis): > 10 µM
- Percent Effect (Schistosoma mansoni): 7.085%

Structure (SMILES): CO[C@H]1CCN(c2nnc(C)s2)C[C@@H]1Cc1ccccc1.O=C(O)C(F)(F)F
- IC50 [2]: 15.7 µM
- pIC50 (Wolbachia pipientis): 5.449
- IC50 (Wolbachia pipientis): 3.77 µM
- IC50 [3]: 40.3 µM

Structure (SMILES): O=C1[C@H]2CC[C@H](CN(c3ncnc4ccsc34)C2)N1CC1CC1
- IC50 [2]: > 50.1 µM
- pIC50 (Wolbachia pipientis): 5.348
- IC50 (Wolbachia pipientis): 5.55 µM
- IC50 [4]: > 100 µM
- IC50 [3]: > 50.1 µM

Structure (SMILES): CSCC[C@H](N)C(=O)NCc1cc2n(n1)CCCN(C(=O)C1CCC1)C2
- IC50 (Wolbachia pipientis): > 10 µM
- Percent Effect (Schistosoma mansoni): -28.36%

Structure (SMILES): CCn1cc(-c2cc(-c3cc(CN(C)C)cs3)nc(N)c2C#N)c(C)n1
- IC50 (Wolbachia pipientis): > 10 µM
- IC50 [4]: 24.7 µM and 11 µM
- IC50 (ClpP1P2): > 100 µM

Structure (SMILES): COc1ccc(C[C@H]2CN(c3nnc(C)s3)CC[C@H]2OC)cc1.O=C(O)C(F)(F)F
- IC50 [2]: 16.4 µM
- pIC50 (Wolbachia pipientis): 6.226
- IC50 (Wolbachia pipientis): 0.462 µM
- IC50 [3]: 16.3 µM

Structure (SMILES): Fc1ccc(CN2CCCC(c3cc4ncccc4[nH]3)C2)cc1 (stereo not given)
- IC50 [2]: 24.3 µM
- pIC50 (Wolbachia pipientis): 5.047
- IC50 (Wolbachia pipientis): 6.78 µM
- IC50 [3]: 33.7 µM

Structure (SMILES): Cc1n[nH]c(C)c1CCC(=O)N(C)Cc1cn[nH]c1-c1ccc(F)cc1
- pIC50 (Wolbachia pipientis): 5.21
- IC50 (Wolbachia pipientis): 5.81 µM

Structure (SMILES): NS(=O)(=O)c1cnn(CCC(=O)N(Cc2ccccc2)C2CC2)c1
- IC50 (Wolbachia pipientis): > 10 µM

Structure (SMILES): Cc1nn(C)c(C)c1C1CCCN1Cc1nc2ccccc2o1 (stereo not given)
- pIC50 (Wolbachia pipientis): 5.128
- IC50 (Wolbachia pipientis): > 10 µM

Structure (SMILES): O=C(NCCCn1cncn1)N1CCCCCC1
- IC50 (Wolbachia pipientis): > 10 µM

Structure (SMILES): Cc1csc(CCCNC(=O)NC2CC(=O)N(C(C)(C)C)C2)n1 (stereo not given)
- IC50 (Wolbachia pipientis): > 10 µM

Structure (SMILES): CCc1nc(C)sc1CN1CCc2[nH]nc(-c3ccc(F)c(F)c3)c2C1
- pIC50 (Wolbachia pipientis): 5.065
- IC50 (Wolbachia pipientis): 4.91 µM

Structure (SMILES): CCCS(=O)(=O)N1CCN(c2cc(-n3nc(C)cc3C)nc(C)n2)CC1
- IC50 (Wolbachia pipientis): > 10 µM

Structure (SMILES): CC(C)N1CC(NC(=O)c2ccc(Cl)s2)CC1=O (stereo not given)
- IC50 (Wolbachia pipientis): > 10 µM

Structure (SMILES): CN(C)C(=O)[C@H]1C[C@@H]2CN(S(=O)(=O)Cc3ccccc3)C[C@H]1O2
- IC50 (Wolbachia pipientis): > 10 µM

Structure (SMILES): Cc1c[nH]c(CN2CCOC(c3ccc(Cl)c(Cl)c3)C2)c(C)c1=O (stereo not given)
- pIC50 (Wolbachia pipientis): 5.368
- IC50 (Wolbachia pipientis): 3.83 µM

Structure (SMILES): CC(C)N1c2sc(-c3ccsc3)nc2CC1C(=O)NC1CCCC1 (stereo not given)
- pIC50 (Wolbachia pipientis): 5.095
- IC50 (Wolbachia pipientis): 7.14 µM

Structure (SMILES): Cc1ccc(CN2CCn3c(CNC(=O)c4cccn4C)cnc3C2)s1
- IC50 (Wolbachia pipientis): > 10 µM
- IC50 (Histidine--tRNA ligase): 64.8 µM and 62.5 µM

Structure (SMILES): FC(F)(F)c1nc(NC2CCCCC2)c2ccccc2n1
- pIC50 (Wolbachia pipientis): 5.146 and 5.539

Structure (SMILES): CC(=O)N(Cc1noc(C2CC2)n1)C1CCN(Cc2cccnc2)C1 (stereo not given)
- IC50 (Wolbachia pipientis): > 10 µM

Structure (SMILES): CC(C)C(=O)Nc1ccc(C(O)Cn2nc(-c3cccs3)oc2=O)cc1 (stereo not given)
- IC50 (Wolbachia pipientis): > 10 µM

Structure (SMILES): Cc1cccc(N2CCN(C(=O)c3c(C)nn(C)c3C)CC2)c1C
- pIC50 (Wolbachia pipientis): 5.626
- IC50 (Wolbachia pipientis): 2.32 µM

Structure (SMILES): CC1CCCN1Cc1cccc(C(=O)Nc2ccc3c(c2)CCC3=O)c1 (stereo not given)
- IC50 (Wolbachia pipientis): > 10 µM

Structure (SMILES): Cc1cc(NC(=O)c2ccccc2Br)n(C)n1
- IC50 (Wolbachia pipientis): > 10 µM

Structure (SMILES): O=C1O[C@@H]2CN(C3CCOCC3)C[C@@H]2N1CCCc1ccc(F)cc1
- IC50 (Wolbachia pipientis): > 10 µM

Structure (SMILES): O=C(O)C(F)(F)F.O=C(O)C(F)(F)F.c1cncc(-c2ccc3c(c2)CCC32CCN(Cc3ccco3)CC2)c1
- IC50 [2]: 28.7 µM
- pIC50 (Wolbachia pipientis): 6.473
- IC50 (Wolbachia pipientis): 0.404 µM
- IC50 [3]: 20.5 µM

Structure (SMILES): CN1CCC/C1=N\S(=O)(=O)c1ccc(NC(=O)c2ccc(Cl)s2)cc1
- IC50 (Wolbachia pipientis): > 10 µM

Structure (SMILES): Cn1nccc1C(=O)N1CCCC2(CCN(c3ccsc3)C2=O)C1 (stereo not given)
- IC50 (Wolbachia pipientis): > 10 µM

Structure (SMILES): c1cnn(CC2CCCN2c2ncnc3ccsc23)c1 (stereo not given)
- pIC50 (Wolbachia pipientis): 5.454
- IC50 (Wolbachia pipientis): 3.17 µM

Structure (SMILES): CN(C)c1ncc(I)c(C2CCCCN2S(C)(=O)=O)n1 (stereo not given)
- IC50 (Wolbachia pipientis): > 10 µM

Structure (SMILES): COc1ccccc1OCCN(C)c1cc(C)nc(N)n1
- IC50 (Wolbachia pipientis): > 10 µM

Structure (SMILES): Cc1nn(C)c(C)c1C(=O)NCc1ccnc(OCC(F)(F)F)c1
- IC50 (Wolbachia pipientis): > 10 µM

Structure (SMILES): O=C(Nc1ccnc(OC2CCOC2)c1)c1ccccc1Cl (stereo not given)
- pIC50 (Wolbachia pipientis): 5.461 and 5.05

Structure (SMILES): O=c1oc(-c2cccs2)nn1CC(O)c1ccc2c(c1)CCC2 (stereo not given)
- IC50 (Wolbachia pipientis): > 10 µM

Structure (SMILES): Cc1nn(C)c(C)c1CN(C)c1nc(C2CC2)nc2c(C)nn(C)c12
- pIC50 (Wolbachia pipientis): 5.529
- IC50 (Wolbachia pipientis): 2.65 µM

Structure (SMILES): Cc1noc(-c2ccnc(Oc3ccc(CN4CCCC4)cc3C)c2)n1
- pIC50 (Wolbachia pipientis): 5.704 and 5.368

Structure (SMILES): Cc1ccc(CSc2nc(N)cc(NCCC(=O)N3CCCC3)n2)cc1
- pIC50 (Wolbachia pipientis): 5.181
- IC50 (Wolbachia pipientis): 4.89 µM
